{
  "source": "patent US20250255868A1",
  "about": "“HETEROCYCLIC COMPOUND ACTING AS KRAS G12D INHIBITOR” (Hangzhou Innogate Pharma Co., Ltd., priority 2021, published 2025)",
  "assay_type_in_all_cases": "cell-based",
  "key": {"[1]": {"system": "AGS (human gastric cancer cell line, KRAS G12D mutation)", "test": "3D cell proliferation inhibition (CellTiter-Glo), AGS", "conditions": "168 h, 3D culture, 100 nM compound, seven days, CTG", "experimental": "(§1) The Cell Titer-Glo (CTG) method was adopted. Compound was dissolved with DMSO to 10 mM, and then diluted by medium. The upper medium of cells was removed, washed once with DPBS, added 2 mL of trypsin, and placed at 37° C. for a while. After cells were detached from the petri dish, 5 mL fresh medium was added and the suspension cells were centrifuged at 1000 rpm for 5 minutes at room temperature. Resuspend the cells with 5 mL of fresh culture medium, and use Countess™ to count cells. 200 nL compounds were added to a ultra-low attachment 384-well plate, and 40 μL cells were added to each well. After seven days of culture at 37° C., 5% CO2, CTG was added and the signal was recorded using Envision. The Inhibition rate is calculated using the following formula: Inhibition %=(Ave_H-Sample)/(Ave_H-Ave_L)×100%. Ave_H represents the average reading value of DMSO well, Sample represents the average reading value of compound well, and Ave_L represents the average reading value of 10 μM positive control well. The log value of concentration was taken as the X-axis, and the percentage inhibition rate was taken as the Y-axis. The dose-effect curve was fitted with log(inhibitor) vs. response-Variable slope of the analysis software GraphPad Prism 5. The IC50 value or inhibitory rate of each compound on cell proliferation was obtained."}, "[2]": {"system": "HPAC (human pancreatic cancer cell line, KRAS G12D mutation)", "test": "3D cell proliferation inhibition (CellTiter-Glo), HPAC", "conditions": "168 h, 3D culture, seven days, CTG", "experimental": "as §1, with “Compound activity was indicated by AGS (human gastric cancer cell line, KRAS G12D mutation), GP2D (human colon cancer cell line, KRAS G12D mutation), HPAC (human pancreatic cancer cell line, KRAS G12D mutation) and AsPCl (human pancreatic cancer cell line, KRAS G12D mutation) 3D cell proliferation inhibition. The Cell” for “The Cell”"}, "[3]": {"system": "GP2D (human colon cancer cell line, KRAS G12D mutation)", "test": "3D cell proliferation inhibition (CellTiter-Glo), GP2D", "conditions": "168 h, 3D culture, seven days, CTG", "experimental": "as §1, with “Compound activity was indicated by AGS (human gastric cancer cell line, KRAS G12D mutation), GP2D (human colon cancer cell line, KRAS G12D mutation), HPAC (human pancreatic cancer cell line, KRAS G12D mutation) and AsPCl (human pancreatic cancer cell line, KRAS G12D mutation) 3D cell proliferation inhibition. The Cell” for “The Cell”, “control well. […]” for “control well. The log value of concentration was taken as the X-axis, and the percentage inhibition rate was taken as the Y-axis. The dose-effect curve was fitted with log(inhibitor) vs. response-Variable slope of the analysis software GraphPad Prism 5. The IC50 value or inhibitory rate of each compound on cell proliferation was obtained.”"}, "[4]": {"system": "AsPC1 (human pancreatic cancer cell line, KRAS G12D mutation)", "test": "3D cell proliferation inhibition (CellTiter-Glo), AsPC1", "conditions": "ASPC1, 168 h, 3D culture, seven days, CTG", "experimental": "as §1, with “Compound activity was indicated by AGS (human gastric cancer cell line, KRAS G12D mutation), GP2D (human colon cancer cell line, KRAS G12D mutation), HPAC (human pancreatic cancer cell line, KRAS G12D mutation) and AsPCl (human pancreatic cancer cell line, KRAS G12D mutation) 3D cell proliferation inhibition. The Cell” for “The Cell”"}},
  "data": [
    {"compound": "Oc1cc(-c2ncc3c(N4CCNC5(CC5)C4)nc(OC[C@@]45CCCN4C[C@H](F)C5)nc3c2F)c2c(F)cccc2c1", "note": "[Compound 1]", "values": [
      {"measurement": "inhibition at 0.1 µM", "setting": "[1]", "result": "> 50", "unit": "%"}
    ]},
    {"compound": "Oc1cc(-c2ncc3c(N4CC5CCC(C4)N5)nc(OCC45CCCN4CC(=C(F)F)C5)nc3c2F)c2c(F)cccc2c1", "note": "(centres unmarked) [Compound 4]", "values": [
      {"measurement": "inhibition at 0.1 µM", "setting": "[1]", "result": "> 50", "unit": "%"},
      {"measurement": "IC50", "setting": "[2]", "result": "< 15", "unit": "nM"},
      {"measurement": "IC50", "setting": "[3]", "result": "< 0.5", "unit": "nM"}
    ]},
    {"compound": "C#Cc1cccc2cc(O)cc(-c3ncc4c(N5CC6CCC(C5)N6)nc(OCC56CCCN5CC(=C(F)F)C6)nc4c3F)c12", "note": "(centres unmarked) [Compound 10]", "values": [
      {"measurement": "inhibition at 0.1 µM", "setting": "[1]", "result": "> 50", "unit": "%"},
      {"measurement": "IC50", "setting": "[2]", "result": "< 10", "unit": "nM"},
      {"measurement": "IC50", "setting": "[4]", "result": "< 5", "unit": "nM"},
      {"measurement": "IC50", "setting": "[3]", "result": "< 0.5", "unit": "nM"}
    ]},
    {"compound": "C#Cc1c(F)ccc2cccc(-c3ncc4c(N5CC6CCC(C5)N6)nc(OCC56CCCN5CC(=C(F)F)C6)nc4c3F)c12", "note": "(centres unmarked) [Compound 12]", "values": [
      {"measurement": "inhibition at 0.1 µM", "setting": "[1]", "result": "> 50", "unit": "%"},
      {"measurement": "IC50", "setting": "[2]", "result": "< 70", "unit": "nM"}
    ]},
    {"compound": "FC(F)=C1CN2CCCC2(COc2nc(N3CC4CCC(C3)N4)c3cnc(-c4cccc5cccc(F)c45)c(F)c3n2)C1", "note": "(centres unmarked) [Compound 13]", "values": [
      {"measurement": "inhibition at 0.1 µM", "setting": "[1]", "result": "> 50", "unit": "%"}
    ]},
    {"compound": "CCc1c(F)ccc2cccc(-c3ncc4c(N5CC6CCC(C5)N6)nc(OCC56CCCN5CC(=C(F)F)C6)nc4c3F)c12", "note": "(centres unmarked) [Compound 14]", "values": [
      {"measurement": "inhibition at 0.1 µM", "setting": "[1]", "result": "> 50", "unit": "%"}
    ]},
    {"compound": "C#Cc1c(F)ccc2cc(O)cc(-c3ncc4c(N5CC6CCC(C5)N6)nc(OCC56CCCN5CC(=C(F)F)C6)nc4c3F)c12", "note": "(centres unmarked) [Compound 20]", "values": [
      {"measurement": "IC50", "setting": "[2]", "result": "< 5", "unit": "nM"}
    ]},
    {"compound": "C#Cc1c(F)ccc2cc(O)cc(-c3ncc4c(N5C6CCC5CNC6)nc(OC[C@@]56CCCN5C[C@H](F)C6)nc4c3F)c12", "note": "[Compound 21]", "values": [
      {"measurement": "IC50", "setting": "[4]", "result": "< 100", "unit": "nM"}
    ]},
    {"compound": "C#Cc1c(F)ccc2cc(O)cc(-c3ncc4c(N5CCNC6(CC6)C5)nc(OC[C@@]56CCCN5C[C@H](F)C6)nc4c3F)c12", "note": "[Compound 22]", "values": [
      {"measurement": "IC50", "setting": "[4]", "result": "< 150", "unit": "nM"}
    ]},
    {"compound": "C#Cc1c(F)ccc2cc(O)cc(-c3ncc4c(N5C6CCC5CNC6)nc(OCC56CCCN5CC(=C(F)F)C6)nc4c3F)c12", "note": "(centres unmarked) [Compound 23]", "values": [
      {"measurement": "IC50", "setting": "[2]", "result": "< 50", "unit": "nM"}
    ]},
    {"compound": "C#Cc1c(F)ccc2cc(O)cc(-c3ncc4c(N5CCNC6(CC6)C5)nc(OCC56CCCN5CC(=C(F)F)C6)nc4c3F)c12", "note": "(centres unmarked) [Compound 24]", "values": [
      {"measurement": "IC50", "setting": "[2]", "result": "< 70", "unit": "nM"}
    ]},
    {"compound": "C#Cc1c(F)ccc2cc(OC(C)=O)cc(-c3ncc4c(N5CC6CCC(C5)N6)nc(OCC56CCCN5CC(=C(F)F)C6)nc4c3F)c12", "note": "(centres unmarked) [Compound 28]", "values": [
      {"measurement": "IC50", "setting": "[2]", "result": "< 70", "unit": "nM"}
    ]},
    {"compound": "C#Cc1c(F)ccc2cc(OP(=O)(O)O)cc(-c3ncc4c(N5CC6CCC(C5)N6)nc(OCC56CCCN5CC(=C(F)F)C6)nc4c3F)c12", "note": "(centres unmarked) [Compound 29]", "values": [
      {"measurement": "IC50", "setting": "[2]", "result": "< 10", "unit": "nM"}
    ]},
    {"compound": "C#Cc1c(F)ccc2cc(O)cc(-c3c(Cl)cc4c(N5CC6CCC(C5)N6)nc(OCC56CCCN5CC(=C(F)F)C6)nc4c3F)c12", "note": "(centres unmarked) [Compound 30]", "values": [
      {"measurement": "IC50", "setting": "[2]", "result": "< 25", "unit": "nM"}
    ]}
  ]
}
